Test [1] concerns diabetic rats. Nature of the test: glucose challenge 2.5 h after injection in diabetic rats (Example 38). In kind it is in vivo, wistar rats. As to conditions: 4.1 IU subcutaneous in the neck, glucose 1.5 g/kg i.p. after 2.5 h, compared with normal group. Here is the method:
Male wistar rats of 4-6 weeks were selected and fed for two weeks. streptozotocin (STZ) was administered once in a dose of 180 mg/kg (administered according to the specific body weight of the rat). The STZ was weighed according to the weight of the rat, put in a sterilized bottle, then wrapped with tinfoil. The sodium citrate buffer solution and the STZ bottle were brought into the animal room under ice bath conditions. A sodium citrate buffer solution with a concentration of 1% STZ (1 g/100 ml) was prepared, and injected into the tail vein within 30 minutes to prevent inactivation. After injection of STZ, adequate drinking water and feed were given every day. Fasting blood sugar was measured on the 1st day, 7th day, and 10th day. If it was greater than 16.65 mmol/L, it was a stable diabetes model. 2 groups of diabetic rats and 1 group of normal rats (4 rats in each group) were taken. Diabetic rat groups were subcutaneously injected with (1) 2.0 mg M3-2 (4.1 IU) and (2) insulin (4.1 IU) in the neck respectively. After 2.5 h of injection, g lucose (1.5 g/kg) was intraperitoneally injected into rats in the diabetes group and the normal group, and the blood sugar was detected.

In another test the test system is diabetic mice. Nature of the test: glucose challenge after patch or injection in diabetic mice (Example 41). The test is classed as in vivo, C57bl/6 mice. As to conditions: 12.0 IU/kg, glucose 1.5 g/kg i.p. after 2.5 h, compared with normal group. Here is the method:
1.5 mg of M3-2 was added into 0.5 mL of ultrapure water, ultrasonically dispersed evenly. 0.25 g of hyaluronic acid (HA) was added, and stirred at room temperature until a homogeneous system was obtained to obtain an HA aqueous solution of M3-2, which was used as a pouring material of microneedle (Microneedles, MNs). 1 g of HA was added to 1 mL of ultrapure water and stirred at room temperature until clear and transparent to obtain a blank solution of HA, which was used as the base material of MNs. 50 μL HA aqueous solution of M3-2 was taken and added to the surface of the mold. […]
C57bl/6 mice (male, 4-6 weeks) were selected and fed adaptively for two weeks at room temperature of 24° C.±1° C., humidity of 55% for 12 h with bright cycle (8:00-20:00) with adequate water and feed. […] Fasting blood glucose was measured on the 3rd, 5th, 7th, 10th, and 21st days, and it was a stable diabetes model if it was greater than 16.65 mmol/L.
2 groups of diabetic mice and 1 group of normal mice (4 mice in each group) were taken. […] After 2.5 h of injection or patch, glucose (1.5 g/kg) was intraperitoneally injected into mice in the diabetes group and the normal group, and the blood sugar was detected.

For test [2], the system named is diabetic rats. Nature of the test: blood sugar of diabetic rats after subcutaneous injection (Example 37). The test is classed as in vivo, wistar rats. As to conditions: same dose (4.1 IU). On the procedure:
Male wistar rats of 4-6 weeks were selected and fed for two weeks. streptozotocin (STZ) was administered once in a dose of 180 mg/kg (administered according to the specific body weight of the rat). The STZ was weighed according to the weight of the rat, put in a sterilized bottle, then wrapped with tinfoil. The sodium citrate buffer solution and the STZ bottle were brought into the animal room under ice bath conditions. A sodium citrate buffer solution with a concentration of 1% STZ (1 g/100 ml) was prepared, and injected into the tail vein within 30 minutes to prevent inactivation. After injection of STZ, adequate drinking water and feed were given every day. Fasting blood sugar was measured on the 1st day, 7th day, and 10th day. If it was greater than 16.65 mmol/L, it was a stable diabetes model. Diabetic rats were taken and divided into 4 groups (4 rats in each group). The group of diabetic rats were subcutaneously injected (1) 1.5 mg M3-2, (2) 2.0 mg M3-2 (4.1 IU), (3) 1.0 mL PBS buffer solution and (4) insulin (4.1 IU). Blood sugar in rats was monitored for a period of time after injection.

The values below come from patent US20230310333A1, “MESOPOROUS SILICA NANOPARTICLE CONTROLLED RELEASE SYSTEM, PREPARATION METHOD THEREFOR AND APPLICATION THEREOF” (East China University of Science and Technology, priority 2020, published 2023).

For insulin, the “blood sugar regulation after intraperitoneal glucose” value is recorded as “the blood sugar quickly returns to a higher blood sugar level” in the test on diabetic rats [1] and “the blood sugar quickly rises to a higher blood sugar level after glucose injection” in the test with diabetic mice. Further, the “duration of blood glucose at 100-200 mg/dL” value with diabetic rats [2] was 4.5 h.
